pKd: −log10 of the molar value.
Assays:
YTHDF1 (361-559) [1] = target: T1, YTHDF1 (361-559) (Homo sapiens, UniProt Q9BYJ9); test: Microscale thermophoresis (MST) assay; format: binding
T1 construct: GST (N, cleaved yes); made in house; host or cells: E. coli BL21 (DE3)
T1 sequence (Q9BYJ9 with tags, fused parts or gaps): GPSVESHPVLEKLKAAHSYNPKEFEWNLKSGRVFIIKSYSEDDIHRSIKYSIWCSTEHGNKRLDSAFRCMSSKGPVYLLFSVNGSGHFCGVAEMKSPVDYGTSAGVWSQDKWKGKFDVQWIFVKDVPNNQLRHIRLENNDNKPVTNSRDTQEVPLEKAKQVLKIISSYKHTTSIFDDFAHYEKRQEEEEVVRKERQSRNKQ
Protocol: Microscale Thermophoresis (MST) assay was performed on MiscroScale Thermophoresis instrument (NanoTemper Technologies) at room temperature using the label-free method. […] And the YTHDF1 (361-559) was diluted to 4 μM with MST buffer. […] Before measuring, the mixture was centrifuged at 13000 rpm for 10 minutes at 4° C. At last, the samples were collected by Monolith NT™ Automated Label Free capillaries (NanoTemper Technologies) and the measurement was started. […] Affinity Analysis Software v2.3 (NanoTemper Technologies).

YTHDF1 mutant W384A = target: T2, YTHDF1 mutant W384A (Homo sapiens, UniProt Q9BYJ9, W384A); test: FP assay with YTHDF1 mutant W384A; format: binding
T2 construct: GST (N, cleaved yes); made in house; host or cells: E. coli BL21 (DE3)
T2 sequence (Q9BYJ9 with tags, fused parts or gaps W384A): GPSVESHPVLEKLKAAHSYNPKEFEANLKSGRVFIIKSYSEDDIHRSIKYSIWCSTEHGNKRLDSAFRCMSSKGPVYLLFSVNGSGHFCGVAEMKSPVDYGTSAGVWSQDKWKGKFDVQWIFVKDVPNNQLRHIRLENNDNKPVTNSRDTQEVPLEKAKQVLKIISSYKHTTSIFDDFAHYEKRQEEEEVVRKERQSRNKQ
Protocol: The protein YTHDF1 (361-559) (SEQ ID NO: 2) and its mutants (SEQ ID NOs: 4-13) were cloned into pGEx-6P-1 vector (obtained from YouBio Co, Ltd, Catalog NO: VT1258), and the His-YTHDF1 (361-559) (SEQ ID NO: 3) used in AlphaScreen Assay was cloned into modified pET28a vector (obtained from YouBio Co, Ltd, Catalog NO: VT1207). The vectors were transformed into E. coli BL21 (DE3) cells and cultured at 37° C. When OD value reached 0.6˜0.8, 1 mM Isopropyl-β-D-thiogalactopyranoside was added to overexpress the protein at 16° C. overnight. […] Then, the proteins were further purified via cation exchange (HiTrap SP, GE Healthcare) and finally through a Superdex 75 10/300 column (GE Healthcare). At last, the purified YTHDF1(361-559) and the mutants were kept in buffer which contains 20 mM Hepes (pH 7.4) and 200 mM NaCl. For His-YTHDF1 (361-559), the protein was purified via Ni-NTA chromatography (HisTrap FF, GE Healthcare), followed by cation exchange and Superdex 75 10/300 column in sequence. And the obtained protein was kept in the buffer with the same ingredients.
All of the YTHDF1 (361-559), the 5′-FAM labeled m^6A-containing mRNA (5′-FAM-[…] (m^6A) CUGUG-3′, SEQ ID NO: 14) and the candidate compounds were diluted with assay buffer (20 mM Hepes (pH 7.4), 50 mM NaCl, 0.01% (v/v) tween 20, 5% (v/v) glycerol). […] At last, the mixtures were measured by Envision Readers (PerkinElmer). […]

YTHDF1 (361-559) [2] = target: T1, YTHDF1 (361-559); test: SPR binding assay
Protocol: SPR binding assay was conducted at 25° C. on the Biacore T200 instrument (GE Healthcare). YTHDF1 (361-559) was covalently immobilized on a CM5 chip via standard amine-coupling procedure in the condition of 10 mM sodium acetate (pH 5.5).

- pKd (YTHDF1 (361-559) [1]): 5.33
- pKd (YTHDF1 (361-559) [2]): 5.60
SMILES: O=C(/C=C/c1ccc(O)c(O)c1/C=C/c1ccc(O)c(O)c1)O[C@H](Cc1ccc(O)c(O)c1)C(=O)O [SAA, Salvianolic Acid A]
- inhibitory activity against mutant binding to m6A versus wildtype (YTHDF1 mutant W384A): significantly weaker than that against wildtype YTHDF1
